Here are results for 72 molecules from patent US7202265B2, “Indolinone combinatorial libraries and related products and methods for the treatment of disease” (Sugen, Inc., priority 1997, dated 2007).

Structures are written as SMILES.

One test deals with human MET. In words: MET biochemical kinase assay.
Details: not given
Also noted: concentration or dose not given beside the values. The essentials: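 MET captured from cell lysates onto plates coated with goat anti-rabbit Fc plus rabbit polyclonal anti-MET cytoplasmic-domain antibody; after washing, compounds added with kinase buffer containing ATP and divalent metal ions. Receptor tyrosine phosphorylation detected by HRP-conjugated anti-phosphotyrosine antibody, TMB colorimetric read-out.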
With `O=C1Nc2ccc(S(=O)(=O)Nc3ccc(C(F)(F)F)cc3)cc2C1=Cc1ccncc1` [10729/E09], the “Met Kinase % Inhibition” value is 85.0%.

For the molecule `O=C1Nc2ccc(S(=O)(=O)Nc3ccc(C(F)(F)F)cc3)cc2C1=Cc1ccc(N2CCCC2)cc1` [10729/E10], the “Met Kinase % Inhibition” value is listed as 7.5%. As to `O=C1Nc2ccc(CCCl)cc2C1=Cc1cccc(Oc2ccccc2)c1` [10729/G06], the “Met Kinase % Inhibition” value was determined as 26.0%. As for `O=C1Nc2c(Br)cc(Br)cc2C1=Cc1coc2ccc(Cl)cc2c1=O` [10730/A06], the “Met Kinase % Inhibition” value worked out at 61.0%.

With `O=C1Nc2c(Br)cc(Br)cc2C1=Cc1cc2ccccc2nc1Cl` [10730/A08], the “Met Kinase % Inhibition” value amounted to 69.0%. With `Cc1cc(C=C2C(=O)Nc3c(Br)cc(Br)cc32)oc1C` [10730/A11], the “Met Kinase % Inhibition” value was 91.0%. Same read-out and setting: then `CNS(=O)(=O)c1ccc2c(c1)C(=Cc1cc3ccccc3nc1Cl)C(=O)N2` [10730/D08], with −13.6%; and `CNS(=O)(=O)c1ccc2c(c1)C(=Cc1cc(C)c(C)o1)C(=O)N2` [10730/D11], with 9.7%. For the molecule `CC(=O)n1cc(C=C2C(=O)Nc3ccc(S(=O)(=O)Nc4ccc(C(F)(F)F)cc4)cc32)c2ccccc21` [10730/E05], the “Met Kinase % Inhibition” value is recorded as 49.0%. As to `COc1ccc(C=C2C(=O)Nc3ccc(S(=O)(=O)N4CCOCC4)cc32)c(OC)c1OC` [10730/F02], the “Met Kinase % Inhibition” value is reported as −6.2%. With `COc1cc(OC)c(OC)cc1C=C1C(=O)Nc2ccc(S(=O)(=O)N3CCOCC3)cc21` [10730/F03], the “Met Kinase % Inhibition” value is −0.6%. Take `COc1cc(C=C2C(=O)Nc3ccc(S(=O)(=O)N4CCOCC4)cc32)cc(OC)c1OC` [10730/F04]: the “Met Kinase % Inhibition” value is 36.0%. The same measure, in the same setting: in the case of `Cc1ccc2occ(C=C3C(=O)Nc4c(Br)cc(Br)cc43)c(=O)c2c1` [10731/A06] it was 53.0%; in that of `C=C(C)C1CC=C(C=C2C(=O)Nc3ccc(I)cc32)CC1` (stereo not drawn) [10731/B04], 71.0%. Consider `CC(C)c1ccc2occ(C=C3C(=O)Nc4ccc(I)cc43)c(=O)c2c1` [10731/B05], for which the “Met Kinase % Inhibition” value was found to be 86.0%. Turning to `Cc1c(Br)ccc2c1C(=Cc1coc3ccc([N+](=O)[O-])cc3c1=O)C(=O)N2` [10731/C07], the “Met Kinase % Inhibition” value was −11.6%. Still for that read-out and setting: in the case of `CCn1c2ccccc2c2cc(C=C3C(=O)Nc4ccc(S(=O)(=O)NC)cc43)ccc21` [10731/D02] it was 8.7%. Still for that read-out and setting: in the case of `O=C1Nc2ccc(S(=O)(=O)Nc3ccc(C(F)(F)F)cc3)cc2C1=Cc1c[nH]c(=O)[nH]c1=O` [10731/E08] it was 59.0%; in that of `COc1ccc2[nH]cc(C=C3C(=O)Nc4ccc(S(=O)(=O)Nc5ccc(C(F)(F)F)cc5)cc43)c2c1` [10731/E09], 27.0%; in that of `C=C(C)C1CC=C(C=C2C(=O)Nc3ccc(S(=O)(=O)N4CCOCC4)cc32)CC1` (stereo not drawn) [10731/F04], 17.0%. For `COc1ccc2[nH]cc(C=C3C(=O)Nc4ccc(CCCl)cc43)c2c1` [10731/G09], the “Met Kinase % Inhibition” value is 4.4%. Turning to `CC(C)(C)c1cc(C=C2C(=O)Nc3c(Br)cc(Br)cc32)ccc1OCc1ccccc1` [10732/A06], the “Met Kinase % Inhibition” value is 5.7%.

Consider `O=C1Nc2ccc(I)cc2C1=CC(c1cccs1)C(F)(F)F` (stereo not drawn) [10732/B02], for which the “Met Kinase % Inhibition” value came to 78.0%. Regarding `COc1c(C(C)C)cc(C=C2C(=O)Nc3ccc(Br)c(C)c32)cc1C(C)C` [10732/C03], the “Met Kinase % Inhibition” value is given as 14.0%. The same measure, in the same setting: in the case of `Cc1c(Br)ccc2c1C(=Cc1cc(Cl)c(OCc3ccccc3)c(C(C)(C)C)c1)C(=O)N2` [10732/C10] it was 43.0%; in that of `COc1c(C(C)C)cc(C=C2C(=O)Nc3ccc(S(=O)(=O)Nc4ccc(C(F)(F)F)cc4)cc32)cc1C(C)C` [10732/E03], 3.9%; in that of `CC(C)c1cc(C=C2C(=O)Nc3ccc(S(=O)(=O)Nc4ccc(C(F)(F)F)cc4)cc32)cc(C(C)C)c1Oc1ccccc1` [10732/E04], 8.2%. In the case of `COc1ccc(C=C2C(=O)Nc3ccc(S(=O)(=O)Nc4ccc(C(F)(F)F)cc4)cc32)cc1C(C)(C)C` [10732/E05], the “Met Kinase % Inhibition” value was 2.2%. Take `CC(C)(C)c1cc(C=C2C(=O)Nc3ccc(S(=O)(=O)Nc4ccc(C(F)(F)F)cc4)cc32)ccc1OCc1ccccc1` [10732/E06]: the “Met Kinase % Inhibition” value was −2.1%.

Regarding `CC(C)(C)c1cc(C=C2C(=O)Nc3ccc(S(=O)(=O)Nc4ccc(C(F)(F)F)cc4)cc32)cc(Cl)c1OCc1ccccc1` [10732/E10], the “Met Kinase % Inhibition” value was 1.6%.

As to `COc1c(I)cc(C=C2C(=O)Nc3ccc(CCCl)cc32)cc1C(C)(C)C` [10732/G11], the “Met Kinase % Inhibition” value is reported as 63.0%. Regarding `COc1c(C(C)(C)C)cc(C=C2C(=O)Nc3c(Br)cc(Br)cc32)cc1C(C)(C)C` [10733/A04], the “Met Kinase % Inhibition” value came to 24.0%. In the case of `COc1c(C)cc(C=C2C(=O)Nc3ccc(Br)c(C)c32)cc1C` [10733/C06], the “Met Kinase % Inhibition” value is listed as 4.1%. `CNS(=O)(=O)c1ccc2c(c1)C(=Cc1cc(C)c(OC)c(C)c1)C(=O)N2` [10733/D06]: the “Met Kinase % Inhibition” value is −19.4%.

As to `CNS(=O)(=O)c1ccc2c(c1)C(=Cc1cc(C)c(OCc3ccccc3)c(C)c1)C(=O)N2` [10733/D07], the “Met Kinase % Inhibition” value is recorded as −6.8%. Same read-out and setting: in the case of `CNS(=O)(=O)c1ccc2c(c1)C(=Cc1cc(Br)cc(OC)c1O)C(=O)N2` [10733/D08] it was 80.0%; in that of `CC(C)(C)c1cc(C=C2C(=O)Nc3ccc(S(=O)(=O)Nc4ccc(C(F)(F)F)cc4)cc32)cc(C(C)(C)C)c1OCc1ccccc1` [10733/E05], 2.9%; in that of `Cc1cc(C=C2C(=O)Nc3ccc(S(=O)(=O)Nc4ccc(C(F)(F)F)cc4)cc32)cc(C)c1OCc1ccccc1` [10733/E07], −10.1%. For `Cc1cc(C=C2C(=O)Nc3ccc(S(=O)(=O)N4CCOCC4)cc32)cc(C)c1OCc1ccccc1` [10733/F07], the “Met Kinase % Inhibition” value is reported as −16.4%.

As to `CC(C)(C)c1cc(C=C2C(=O)Nc3ccc(CCCl)cc32)cc(C(C)(C)C)c1OCc1ccccc1` [10733/G05], the “Met Kinase % Inhibition” value is 1.8%. For the molecule `COc1c(C)cc(C=C2C(=O)Nc3ccc(CCCl)cc32)cc1C` [10733/G06], the “Met Kinase % Inhibition” value was 0.8%.

Turning to `Cc1cc(C=C2C(=O)Nc3ccc(CCCl)cc32)cc(C)c1OCc1ccccc1` [10733/G07], the “Met Kinase % Inhibition” value is reported as 8.5%. As for `COc1cc(Br)cc(C=C2C(=O)Nc3ccc(CCCl)cc32)c1O` [10733/G08], the “Met Kinase % Inhibition” value is recorded as 79.0%. For the molecule `O=C1Nc2c(Br)cc(Br)cc2C1=Cc1cc(Cl)ccc1O` [10734/A04], the “Met Kinase % Inhibition” value turned out to be 68.0%.

Take `CCOc1cccc(C=C2C(=O)Nc3ccc(S(=O)(=O)NC)cc32)c1O` [10734/D02]: the “Met Kinase % Inhibition” value is given as 46.0%. The same measure, in the same setting: in the case of `CCN(CC)c1ccc(C=C2C(=O)Nc3ccc(S(=O)(=O)NC)cc32)c(O)c1` [10734/D05] it was 55.0%. Consider `CNS(=O)(=O)c1ccc2c(c1)C(=Cc1cc(Br)cc(Br)c1O)C(=O)N2` [10734/D07], for which the “Met Kinase % Inhibition” value was determined as 92.0%. On to `CNS(=O)(=O)c1ccc2c(c1)C(=Cc1ccc(O)c(Br)c1)C(=O)N2` [10734/D09], for which the “Met Kinase % Inhibition” value worked out at 88.0%. Take `CCOc1cccc(C=C2C(=O)Nc3ccc(S(=O)(=O)N4CCOCC4)cc32)c1O` [10734/F02]: the “Met Kinase % Inhibition” value was 55.0%.

The target in a further test is T1, FLK-1 receptor (Mus musculus, UniProt P35918).
T1 construct: expressed in transfected cells; host or cells: NIH3T3 C7#3 (FLK-1/NIH3T3)
T1 sequence (P35918 20-1345): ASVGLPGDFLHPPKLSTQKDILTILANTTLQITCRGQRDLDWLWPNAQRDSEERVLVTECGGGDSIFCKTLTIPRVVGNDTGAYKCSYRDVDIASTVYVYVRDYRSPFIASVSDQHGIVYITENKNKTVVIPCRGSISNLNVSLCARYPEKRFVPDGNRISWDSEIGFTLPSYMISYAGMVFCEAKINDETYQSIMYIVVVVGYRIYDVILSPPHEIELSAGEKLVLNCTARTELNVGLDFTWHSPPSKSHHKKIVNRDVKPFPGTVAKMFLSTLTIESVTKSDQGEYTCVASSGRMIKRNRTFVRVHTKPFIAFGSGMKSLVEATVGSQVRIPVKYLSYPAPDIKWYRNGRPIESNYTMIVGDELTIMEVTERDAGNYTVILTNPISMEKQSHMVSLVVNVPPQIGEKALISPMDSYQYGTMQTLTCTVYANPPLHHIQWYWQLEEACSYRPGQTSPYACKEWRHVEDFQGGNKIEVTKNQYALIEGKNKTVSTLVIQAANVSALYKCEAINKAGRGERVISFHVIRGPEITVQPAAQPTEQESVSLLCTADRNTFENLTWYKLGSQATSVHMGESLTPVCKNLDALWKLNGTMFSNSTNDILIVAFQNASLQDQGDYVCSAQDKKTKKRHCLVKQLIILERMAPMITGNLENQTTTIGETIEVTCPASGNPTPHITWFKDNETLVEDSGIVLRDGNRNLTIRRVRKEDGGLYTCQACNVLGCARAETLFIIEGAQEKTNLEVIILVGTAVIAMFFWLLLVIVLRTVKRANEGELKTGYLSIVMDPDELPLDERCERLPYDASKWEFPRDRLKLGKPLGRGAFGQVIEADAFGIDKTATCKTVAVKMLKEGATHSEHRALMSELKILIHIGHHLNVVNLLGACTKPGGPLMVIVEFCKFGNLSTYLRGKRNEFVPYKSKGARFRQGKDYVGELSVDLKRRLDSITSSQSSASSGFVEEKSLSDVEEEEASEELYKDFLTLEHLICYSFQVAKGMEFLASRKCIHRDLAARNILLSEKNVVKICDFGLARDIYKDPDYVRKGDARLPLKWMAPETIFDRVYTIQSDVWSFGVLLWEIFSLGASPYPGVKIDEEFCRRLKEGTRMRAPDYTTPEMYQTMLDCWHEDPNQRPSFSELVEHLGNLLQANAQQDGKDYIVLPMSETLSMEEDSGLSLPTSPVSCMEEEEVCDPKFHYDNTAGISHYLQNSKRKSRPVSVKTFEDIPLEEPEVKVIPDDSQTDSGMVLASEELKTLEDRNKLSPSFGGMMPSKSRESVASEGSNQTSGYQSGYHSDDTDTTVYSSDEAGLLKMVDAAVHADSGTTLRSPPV
In words: FLK-1 ELISA (catalytic activity of the FLK-1 receptor in FLK-1/NIH3T3 cells). The format is cell-based. Conditions: Table 2; read-out: FLK Kinase IC50.
Experimental: An enzyme linked immunosorbent assay (ELISA) was conducted to measure the catalytic activity of the FLK-1 receptor and more specifically, the inhibition or activation of indolinone compounds on the catalytic activity of the FLK-1 receptor. Specifically, the following assay was conducted to measure catalytic activity of the FLK-1 receptor in FLK-1/NIH3T3 cells.
An ELISA assay was conducted to measure the kinase activity of the FLK-1 receptor and more specifically, the inhibition or activation of protein tyrosine kinase activity on the FLK-1 receptor. Specifically, the following assay was conducted to measure kinase activity of the FLK-1 receptor in FLK-1/NIH3T3 cells.
Materials. The following reagents and supplies were used: • a. […] PBS (Gibco Catalog No. 450–1300EB); • d. […] EDTA (0.5 M (pH 7.0) as a 100× stock); • h. Sodium ortho vanadate (0.5 M as a 100× stock); • i. Sodium pyro phosphate (0.2M as a 100× stock); • j. […] NIH3T3 C7#3 Cells (FLK-1 expressing cells); • l. […] FBS, Gibco (catalog no. 16000-028); • n.
Protocol. The following protocol was used for conducting the assay:
1. Coat Corning 96-well elisa plates with 1.0 μg per well Cappel Anti-rabbit IgG antibody in 0.1M Na2CO3 pH 9.6. Bring final volume to 150 μl per well. Coat plates overnight at 4° C. Plates can be kept up to two weeks when stored at 4° C.
2. Grow cells in Growth media(DMEM, supplemental with 2.0 mM L-Glutamine, 10% FBS) in suitable culture dishes until confluent at 37° C., 5% CO2.
4. Grow cells at least one day at 37° C., 5% CO2.
5. Wash cells with D-PBS 1×.
6. Add 200 μl/well of starvation media (DMEM, 2.0 mM 1-Glutamine, 0.1% FBS). Incubate overnight at 37° C., 5% CO2.
7. Dilute Compounds/Extracts 1:20 in polypropylene 96 well plates using starvation media. Dilute dimethylsulfoxide 1:20 for use in control wells.
8. Remove starvation media from 96 well cell culture plates and add 162 μl of fresh starvation media to each well.
9. Add 18 μl of 1:20 diluted Compound/Extract dilution (from step 7) to each well plus the 1:20 dimethylsulfoxide dilution to the control wells (+/−VEGF), for a final dilution of 1:200 after cell stimulation. Final dimethylsulfoxide is 0.5%. Incubate the plate at 37° C., 5% CO2 for two hours.
10. Remove unbound antibody from ELISA plates by inverting plate to remove liquid. […] Pat the plate on a paper towel to remove excess liquid and bubbles.
Incubate plate thirty minutes while shaking on a microtiter plate shaker.
Wash plate 3 times as described in step 10.
Incubate plate for. thirty minutes while shaking.
In general, IC50 refers to the point on the concentration scale where inhibition reaches its midpoint. Regarding `Cn1cc(/C=C2\C(=O)Nc3ccccc32)c2ccccc21`, the IC50 turned out to be 0.7 µM. With `Cc1cccc2c1/C(=C/c1cn(C)c3ccccc13)C(=O)N2`, the IC50 worked out at 7.7 µM. Consider `Cn1cc(/C=C2\C(=O)Nc3ccc(N)cc32)c2ccccc21`, for which the IC50 was determined as 2.5 µM. Turning to `Cn1cc(/C=C2\C(=O)Nc3ccc(F)cc32)c2ccccc21`, the IC50 is 14 µM. In the case of `COc1ccc2[nH]cc(/C=C3\C(=O)Nc4ccccc43)c2c1`, the IC50 is 13 µM.

The test is the same for the next values; noted with them: Table 6; read-out: FLK Kinase IC50.
`Nc1ccc2c(c1)/C(=C/c1cc3c([nH]1)CCCC3)C(=O)N2`: the IC50 worked out at 1.2 µM. In the case of `O=C1Nc2ccccc2/C1=C/c1cc2c([nH]1)CCCC2`, the IC50 stood at 1.4 µM. `O=C1Nc2ccc(Cl)cc2/C1=C/c1cc2c([nH]1)CCCC2`: the IC50 was determined as 5 µM.

The test is the same for the next values; noted with them: Table 8.
On to `Cc1cc(C)c(/C=C2\C(=O)Nc3ccc(C(=O)O)cc32)[nH]1`, for which the “Activity EC200” value is reported as “ActivityEC200 = 2.8 μm”. On the same count and under the same terms, in the case of `CCc1cc(CC)c(/C=C2\C(=O)Nc3ccc(C(=O)O)cc32)[nH]1` it was “ActivityEC200 = 2.8 μm”. Turning to `CC(C)c1cc(C(C)C)c(/C=C2\C(=O)Nc3ccc(C(=O)O)cc32)[nH]1`, the “Activity EC200” value was “ActivityEC200 = 10 μm”. Regarding `Cc1cc(C)c(/C=C2\C(=O)Nc3ccc(CCC(=O)O)cc32)[nH]1`, the “Activity EC200” value was “ActivityEC200 = 32 μm”.

For the molecule `Cc1ccc(/C=C2\C(=O)Nc3ccc(CCC(=O)O)cc32)s1`, the “Activity EC200” value is reported as “ActivityEC200 > 100 μm”. Turning to `Cc1ccc(/C=C2\C(=O)Nc3ccc(C(=O)O)cc32)s1`, the “Activity EC200” value is “ActivityEC200 = 46 μm”.

Still in this test, the particulars now being: Table 10; read-out: FLK Kinase IC50.
For `COC(=O)CCc1c[nH]c(/C=C2\C(=O)Nc3ccc(N)cc32)c1C`, the IC50 was 4.7 µM.

Take `COC(=O)CCc1c[nH]c(/C=C2\C(=O)Nc3ccc(Cl)cc32)c1C`: the IC50 came to 5.6 µM.

With `COC(=O)CCc1c[nH]c(/C=C2\C(=O)Nc3cccc(C)c32)c1C`, the half-maximal inhibitory concentration (IC50) stood at 10.8 µM. For the molecule `COC(=O)CCc1c[nH]c(/C=C2\C(=O)Nc3ccccc32)c1C`, the IC50 turned out to be 12.5 µM.

`CCOC(=O)c1c(C)c(/C=C2\C(=O)Nc3ccccc32)n(C)c1C`: the IC50 is 0.97 µM.

`CCc1c(C)[nH]c(/C=C2\C(=O)Nc3ccc(N)cc32)c1C`: the IC50 is 1.5 µM. With `Cc1cc(C)n(C)c1/C=C1\C(=O)Nc2ccc(N)cc21`, the IC50 stood at 1.1 µM. For the molecule `Cc1cc(C)c(/C=C2\C(=O)Nc3cccc(C)c32)[nH]1`, the IC50 amounted to 7.3 µM.

`CCc1cc(CC)c(/C=C2\C(=O)Nc3ccc(N)cc32)[nH]1`: the IC50 amounted to 5.6 µM.
